Experimental data: patent US20020026053A1, “Novel 3-(substituted) -2- indolinones compounds and use thereof as inhibitors of protein kinase activity” (priority 1997, published 2002)

Molecular target: T1, Met receptor (EGFR/Met chimeric cells, EMR) (Homo sapiens, UniProt P08581)
T1 construct: expressed in transfected cells; the other entry of the earlier key: EGFR (P00533, Epidermal growth factor receptor)
Test: Met Autophosphorylation Assay
Format: biochemical
Settings: protocol P.130
In short: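 Transiently transfected EGFR/Met chimeric (EMR) cells were lysed in HNTG with 1 mM PMSF. Met was captured on plates coated with goat anti-rabbit IgG, then rabbit anti-Met (C-28), using 90 μg lysate/100 μl for 60 min at room temperature. Phosphotyrosine was read by ELISA.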

T1 sequence (P08581 with tags, fused parts or gaps): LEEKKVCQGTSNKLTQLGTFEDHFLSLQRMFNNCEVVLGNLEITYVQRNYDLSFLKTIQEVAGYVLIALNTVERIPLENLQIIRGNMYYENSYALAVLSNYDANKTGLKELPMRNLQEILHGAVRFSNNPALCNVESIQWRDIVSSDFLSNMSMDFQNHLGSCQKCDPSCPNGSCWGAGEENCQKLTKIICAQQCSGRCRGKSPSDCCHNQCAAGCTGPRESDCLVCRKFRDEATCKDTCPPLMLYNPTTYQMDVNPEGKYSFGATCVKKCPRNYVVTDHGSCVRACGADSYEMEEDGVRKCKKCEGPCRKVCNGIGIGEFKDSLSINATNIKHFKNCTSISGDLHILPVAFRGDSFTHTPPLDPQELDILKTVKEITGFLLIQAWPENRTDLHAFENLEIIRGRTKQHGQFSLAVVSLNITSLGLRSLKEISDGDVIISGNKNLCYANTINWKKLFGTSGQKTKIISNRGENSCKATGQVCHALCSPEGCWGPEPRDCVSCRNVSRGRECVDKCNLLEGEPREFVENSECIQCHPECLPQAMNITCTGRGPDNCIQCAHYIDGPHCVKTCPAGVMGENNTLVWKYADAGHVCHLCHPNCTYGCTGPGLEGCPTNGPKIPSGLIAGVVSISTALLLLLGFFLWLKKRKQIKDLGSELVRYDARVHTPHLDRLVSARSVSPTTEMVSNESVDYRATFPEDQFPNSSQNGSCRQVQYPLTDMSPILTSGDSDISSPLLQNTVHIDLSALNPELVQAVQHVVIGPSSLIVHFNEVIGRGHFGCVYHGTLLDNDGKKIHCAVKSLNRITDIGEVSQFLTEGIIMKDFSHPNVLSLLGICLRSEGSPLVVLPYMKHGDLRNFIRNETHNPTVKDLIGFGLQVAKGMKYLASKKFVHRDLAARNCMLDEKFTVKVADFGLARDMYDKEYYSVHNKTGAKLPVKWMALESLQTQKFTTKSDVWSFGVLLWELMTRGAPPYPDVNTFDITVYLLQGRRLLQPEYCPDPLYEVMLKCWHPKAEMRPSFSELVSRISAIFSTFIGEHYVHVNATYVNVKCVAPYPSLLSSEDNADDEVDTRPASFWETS

Point of comparison: `O=C1Nc2ccc(S(=O)(=O)N3CCOCC3)cc2C1=Cc1cccc(Oc2cccc(C(F)(F)F)c2)c1` [10737/F11], “Met Kinase % Inhibition (P.130)” value 75.6%. Against it:
- Cc1c(Br)cc(Br)c2c1C(=Cc1cccc(F)c1)C(=O)N2 [10736/H07] — lower, 31.0%
- Cc1c(Br)cc(Br)c2c1C(=Cc1ccccc1F)C(=O)N2 [10736/H08] — lower, 33.4%
- CCc1ccc(C=C2C(=O)Nc3c(Br)cc(Br)c(C)c32)cc1 [10736/H09] — lower, 32.1%
- COc1cccc(C=C2C(=O)Nc3c(Br)cc(Br)c(C)c32)c1 [10736/H10] — lower, 32.1%
- Cc1c(Br)cc(Br)c2c1C(=Cc1ccccc1Cl)C(=O)N2 [10736/H11] — lower, 41.5%
- CCOc1ccc(C=C2C(=O)Nc3c(Br)cc(Br)cc32)cc1 [10737/A02] — lower, 53.2%
- Cc1ccc(C=C2C(=O)Nc3c(Br)cc(Br)cc32)c(C)c1 [10737/A03] — lower, 58.9%
- O=C1Nc2c(Br)cc(Br)cc2C1=Cc1cc(F)ccc1F [10737/A04] — lower, 63.5%
- O=C1Nc2c(Br)cc(Br)cc2C1=Cc1cccc(F)c1F [10737/A05] — lower, 58.9%
- COc1ccc(C=C2C(=O)Nc3c(Br)cc(Br)cc32)cc1F [10737/A06] — lower, 57.1%
- Cc1ccc(C)c(C=C2C(=O)Nc3c(Br)cc(Br)cc32)c1 [10737/A07] — lower, 30.1%
- O=C1Nc2c(Br)cc(Br)cc2C1=Cc1ccc2ccccc2c1 [10737/A08] — lower, 28.3%
- O=C1Nc2c(Br)cc(Br)cc2C1=Cc1ccc(Oc2ccccc2)cc1 [10737/A09] — lower, 47.9%
- CC(C)(C)c1ccc(Oc2cccc(C=C3C(=O)Nc4c(Br)cc(Br)cc43)c2)cc1 [10737/A10] — lower, 15.5%
- O=C1Nc2c(Br)cc(Br)cc2C1=Cc1cccc(Oc2cccc(C(F)(F)F)c2)c1 [10737/A11] — lower, 25.3%
- CCOc1ccc(C=C2C(=O)Nc3ccc(I)cc32)cc1 [10737/B02] — higher, 85.0%
- Cc1ccc(C=C2C(=O)Nc3ccc(I)cc32)c(C)c1 [10737/B03] — higher, 86.3%
- O=C1Nc2ccc(I)cc2C1=Cc1cc(F)ccc1F [10737/B04] — higher, 88.9%
- O=C1Nc2ccc(I)cc2C1=Cc1cccc(F)c1F [10737/B05] — higher, 89.5%
- COc1ccc(C=C2C(=O)Nc3ccc(I)cc32)cc1F [10737/B06] — higher, 84.7%
- Cc1ccc(C)c(C=C2C(=O)Nc3ccc(I)cc32)c1 [10737/B07] — higher, 82.5%
- O=C1Nc2ccc(I)cc2C1=Cc1ccc2ccccc2c1 [10737/B08] — higher, 84.1%
- O=C1Nc2ccc(I)cc2C1=Cc1ccc(Oc2ccccc2)cc1 [10737/B09] — higher, 77.0%
- CC(C)(C)c1ccc(Oc2cccc(C=C3C(=O)Nc4ccc(I)cc43)c2)cc1 [10737/B10] — higher, 84.7%
- O=C1Nc2ccc(I)cc2C1=Cc1cccc(Oc2cccc(C(F)(F)F)c2)c1 [10737/B11] — higher, 78.8%
- CCOc1ccc(C=C2C(=O)Nc3ccc(Br)c(C)c32)cc1 [10737/C02] — lower, 30.6%
- Cc1ccc(C=C2C(=O)Nc3ccc(Br)c(C)c32)c(C)c1 [10737/C03] — lower, 52.5%
- Cc1c(Br)ccc2c1C(=Cc1cc(F)ccc1F)C(=O)N2 [10737/C04] — higher, 82.0%
- Cc1c(Br)ccc2c1C(=Cc1cccc(F)c1F)C(=O)N2 [10737/C05] — higher, 81.8%
- COc1ccc(C=C2C(=O)Nc3ccc(Br)c(C)c32)cc1F [10737/C06] — lower, 38.6%
- Cc1ccc(C)c(C=C2C(=O)Nc3ccc(Br)c(C)c32)c1 [10737/C07] — lower, 57.5%
- Cc1c(Br)ccc2c1C(=Cc1ccc3ccccc3c1)C(=O)N2 [10737/C08] — lower, 54.1%
- Cc1c(Br)ccc2c1C(=Cc1ccc(Oc3ccccc3)cc1)C(=O)N2 [10737/C09] — lower, 27.6%
- Cc1c(Br)ccc2c1C(=Cc1cccc(Oc3ccc(C(C)(C)C)cc3)c1)C(=O)N2 [10737/C10] — lower, 60.0%
- Cc1c(Br)ccc2c1C(=Cc1cccc(Oc3cccc(C(F)(F)F)c3)c1)C(=O)N2 [10737/C11] — lower, 34.0%
- CCOc1ccc(C=C2C(=O)Nc3ccc(S(=O)(=O)NC)cc32)cc1 [10737/D02] — lower, 27.8%
- CNS(=O)(=O)c1ccc2c(c1)C(=Cc1ccc(C)cc1C)C(=O)N2 [10737/D03] — lower, 38.6%
- CNS(=O)(=O)c1ccc2c(c1)C(=Cc1cc(F)ccc1F)C(=O)N2 [10737/D04] — lower, 33.5%
- CNS(=O)(=O)c1ccc2c(c1)C(=Cc1cccc(F)c1F)C(=O)N2 [10737/D05] — lower, 41.8%
- CNS(=O)(=O)c1ccc2c(c1)C(=Cc1ccc(OC)c(F)c1)C(=O)N2 [10737/D06] — lower, 37.4%
- CNS(=O)(=O)c1ccc2c(c1)C(=Cc1cc(C)ccc1C)C(=O)N2 [10737/D07] — lower, 37.0%
- CNS(=O)(=O)c1ccc2c(c1)C(=Cc1ccc3ccccc3c1)C(=O)N2 [10737/D08] — lower, 42.0%
- CNS(=O)(=O)c1ccc2c(c1)C(=Cc1ccc(Oc3ccccc3)cc1)C(=O)N2 [10737/D09] — lower, 36.0%
- CNS(=O)(=O)c1ccc2c(c1)C(=Cc1cccc(Oc3ccc(C(C)(C)C)cc3)c1)C(=O)N2 [10737/D10] — lower, 24.8%
- CNS(=O)(=O)c1ccc2c(c1)C(=Cc1cccc(Oc3cccc(C(F)(F)F)c3)c1)C(=O)N2 [10737/D11] — lower, 43.4%
- CCOc1ccc(C=C2C(=O)Nc3ccc(S(=O)(=O)Nc4ccc(C(F)(F)F)cc4)cc32)cc1 [10737/E02] — lower, 53.0%
- Cc1ccc(C=C2C(=O)Nc3ccc(S(=O)(=O)Nc4ccc(C(F)(F)F)cc4)cc32)c(C)c1 [10737/E03] — lower, 13.4%
- O=C1Nc2ccc(S(=O)(=O)Nc3ccc(C(F)(F)F)cc3)cc2C1=Cc1cc(F)ccc1F [10737/E04] — higher, 79.3%
- O=C1Nc2ccc(S(=O)(=O)Nc3ccc(C(F)(F)F)cc3)cc2C1=Cc1cccc(F)c1F [10737/E05] — higher, 80.9%
- COc1ccc(C=C2C(=O)Nc3ccc(S(=O)(=O)Nc4ccc(C(F)(F)F)cc4)cc32)cc1F [10737/E06] — lower, 57.8%
- Cc1ccc(C)c(C=C2C(=O)Nc3ccc(S(=O)(=O)Nc4ccc(C(F)(F)F)cc4)cc32)c1 [10737/E07] — lower, 43.1%
- O=C1Nc2ccc(S(=O)(=O)Nc3ccc(C(F)(F)F)cc3)cc2C1=Cc1ccc2ccccc2c1 [10737/E08] — lower, 61.9%
- O=C1Nc2ccc(S(=O)(=O)Nc3ccc(C(F)(F)F)cc3)cc2C1=Cc1ccc(Oc2ccccc2)cc1 [10737/E09] — lower, 21.2%
- CC(C)(C)c1ccc(Oc2cccc(C=C3C(=O)Nc4ccc(S(=O)(=O)Nc5ccc(C(F)(F)F)cc5)cc43)c2)cc1 [10737/E10] — lower, 49.3%
- O=C1Nc2ccc(S(=O)(=O)Nc3ccc(C(F)(F)F)cc3)cc2C1=Cc1cccc(Oc2cccc(C(F)(F)F)c2)c1 [10737/E11] — lower, 24.8%
- CCOc1ccc(C=C2C(=O)Nc3ccc(S(=O)(=O)N4CCOCC4)cc32)cc1 [10737/F02] — lower, 67.4%
- Cc1ccc(C=C2C(=O)Nc3ccc(S(=O)(=O)N4CCOCC4)cc32)c(C)c1 [10737/F03] — lower, 28.0%
- O=C1Nc2ccc(S(=O)(=O)N3CCOCC3)cc2C1=Cc1cc(F)ccc1F [10737/F04] — lower, 62.8%
- O=C1Nc2ccc(S(=O)(=O)N3CCOCC3)cc2C1=Cc1cccc(F)c1F [10737/F05] — lower, 67.1%
- COc1ccc(C=C2C(=O)Nc3ccc(S(=O)(=O)N4CCOCC4)cc32)cc1F [10737/F06] — lower, 62.8%
- Cc1ccc(C)c(C=C2C(=O)Nc3ccc(S(=O)(=O)N4CCOCC4)cc32)c1 [10737/F07] — lower, 33.3%
- O=C1Nc2ccc(S(=O)(=O)N3CCOCC3)cc2C1=Cc1ccc2ccccc2c1 [10737/F08] — higher, 76.1%
- O=C1Nc2ccc(S(=O)(=O)N3CCOCC3)cc2C1=Cc1ccc(Oc2ccccc2)cc1 [10737/F09] — higher, 76.5%
- CC(C)(C)c1ccc(Oc2cccc(C=C3C(=O)Nc4ccc(S(=O)(=O)N5CCOCC5)cc43)c2)cc1 [10737/F10] — higher, 78.6%
- CCOc1ccc(C=C2C(=O)Nc3ccc(CCCl)cc32)cc1 [10737/G02] — lower, 32.2%
- Cc1ccc(C=C2C(=O)Nc3ccc(CCCl)cc32)c(C)c1 [10737/G03] — lower, 37.4%
- O=C1Nc2ccc(CCCl)cc2C1=Cc1cc(F)ccc1F [10737/G04] — lower, 49.1%
- O=C1Nc2ccc(CCCl)cc2C1=Cc1cccc(F)c1F [10737/G05] — lower, 53.2%
- COc1ccc(C=C2C(=O)Nc3ccc(CCCl)cc32)cc1F [10737/G06] — lower, 50.7%
- Cc1ccc(C)c(C=C2C(=O)Nc3ccc(CCCl)cc32)c1 [10737/G07] — lower, 41.8%
- O=C1Nc2ccc(CCCl)cc2C1=Cc1ccc2ccccc2c1 [10737/G08] — lower, 31.2%
- O=C1Nc2ccc(CCCl)cc2C1=Cc1ccc(Oc2ccccc2)cc1 [10737/G09] — lower, 37.9%
- CC(C)(C)c1ccc(Oc2cccc(C=C3C(=O)Nc4ccc(CCCl)cc43)c2)cc1 [10737/G10] — lower, 22.8%
- O=C1Nc2ccc(CCCl)cc2C1=Cc1cccc(Oc2cccc(C(F)(F)F)c2)c1 [10737/G11] — lower, 35.1%
- CCOc1ccc(C=C2C(=O)Nc3c(Br)cc(Br)c(C)c32)cc1 [10737/H02] — lower, 42.9%
- Cc1ccc(C=C2C(=O)Nc3c(Br)cc(Br)c(C)c32)c(C)c1 [10737/H03] — lower, 46.1%
